# Data taken from patent US20090076029A1 (Palatin Technologies, Inc., priority 2007, published 2009).
# Read-outs that look alike come from different tables or passages of the source.
# Assays:
# hMC3-R [1] = target: T1, hMC3-R; assay: Competitive inhibition assay using [I125]-NDP-α-MSH, hMC3-R membranes; type: binding, human; details: read-out: Ki (nM) (NDP-α-MSH) MC3-R
# T1 construct: expressed in transfected cells; host or cells: HEK-293
# Summary of the method: (§1)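 Membranes from HEK-293 cells expressing hMC3-R, hMC4-R or hMC5-R, or from mouse B-16 melanoma cells (MC1-R), with 0.2–0.4 nM [125I]-NDP-α-MSH in 50 mM HEPES pH 7.2 with Mg2+, Ca2+, K+. Test compound typically 1 μM; 90 min, room temperature; filtration, gamma counting. Percent inhibition vs specific binding (1 μM α-MSH), triplicate mean, negatives as 0%.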
# MC1-R [2] = test system: T2, MC1-R; assay: cAMP functional assay, B-16 mouse melanoma cells expressing MC1-R; type: cell-based; details: cAMP assay at 1 μM
# T2 construct: from B-16 mouse melanoma cells (containing MC1-R); endogenous in cells; host or cells: B-16 mouse melanoma cells
# hMC4-R [3] = test system: T3, hMC4-R; type: binding, human
# T3 construct: expressed in transfected cells; host or cells: HEK-293
# Summary of the method: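 Membranes from hMC4-R-expressing cells incubated 1 h at 37 °C with 0.2 nM [I^125]-AgRP (83-132) and increasing compound in 25 mM HEPES pH 7.5, 100 mM NaCl, 2 mM CaCl2, 2 mM MgCl2, 0.3 mM 1,10-phenanthroline, 0.5% BSA. Filtration, gamma counting; specific binding kept ≤10% of added counts.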
# hMC3-R [4] = test system: T1, hMC3-R; assay: cAMP functional assay, HEK-293 cells expressing hMC3-R; type: cell-based, human; details: cAMP assay at 1 μM
# hMC4-R [5] = test system: T3, hMC4-R; assay: cAMP functional assay in HEK-293 cells expressing MC4-R (agonist, neutral antagonist/Schild); type: cell-based, human
# Summary of the method: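 Cells in EBSS/HEPES pH 7.5 with 0.3 mM IBMX, exposed to compound (0.05-5000 nM, 1% DMSO) for 1 h at 37 °C; cAMP by EIA, EC50 by nonlinear regression. Antagonism: 30 min compound pre-incubation, then 1 nM NDP-α-MSH for 1 h; Schild analysis over 0.005-5000 nM agonist gives pA2.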
# hMC5-R [6] = test system: T4, hMC5-R; assay: cAMP functional assay, HEK-293 cells expressing hMC5-R; type: cell-based, human; details: cAMP assay at 1 μM
# T4 construct: expressed in transfected cells; host or cells: HEK-293
# hMC5-R [7] = target: T4, hMC5-R; assay: Competitive inhibition assay using [I125]-NDP-α-MSH, hMC5-R membranes; type: binding, human; details: read-out: Ki (nM) (NDP-α-MSH) MC5-R
# Summary of the method: as §1
# MC1-R [8] = target: T5, MC1-R; assay: Competitive inhibition assay using [I125]-NDP-α-MSH, MC1-R membranes; type: binding, mouse
# T5 construct: other: 1 μM compound
# MC4-R = test system: T6, MC4-R; assay: Assay for inverse agonist, HEK-293 cells expressing MC4-R; type: cell-based; details: FIG. 3
# T6 construct: expressed in transfected cells; host or cells: HEK-293
# Protocol: Assay for inverse agonist. […] The experimental protocol was essentially as described above. The cells were exposed to the test compounds over a concentration range of 0.05 nM to 5000 nM for 1 hour at 37° C. AgRP (83-132) was used as the reference inverse agonist. Data analysis and EC50 values were determined by using nonlinear regression analysis with the Prism Graph-Pad software.
# hMC4-R [9] = target: T3, hMC4-R; assay: Competitive inhibition assay using [I125]-NDP-α-MSH, hMC4-R membranes; type: binding, human
smiles,measurement,setting,value
"CC(=O)N[C@H](Cc1ccc2ccccc2c1)C(=O)N1C[C@@H](CC(C)C)N(CCc2ccc3ccccc3c2)C[C@@H]1CCCNC(=N)N [Example 13, N-{2-[2(S)-(3-Guanidino-propyl)-5(R)-isobutyl-4(2-naphthalen-2-yl-ethyl)-piperazin-1-yl]-1(R)-naphthalen-2-ylmethyl-2-oxo-ethyl}-acetamide]",Ki,hMC3-R [1],474 nM
same,functional status at MC1-R,MC1-R [2],no intrinsic activity (intrinsic activity below 0.1 (10%) is classified as inactive or having no intrinsic activity)
same,Inhibition at 1 μM (AgRP) MC4-R,hMC4-R [3]; 1 μM compound,100%
same,Ki,"hMC4-R [3]; MC4-R membranes, Table 1, read-out: Ki (nM) I125-AgRP",3.7 nM
same,Ki,hMC4-R [3]; read-out: Ki (nM) (AgRP) MC4-R,3.7 nM
same,functional status at MC3-R,hMC3-R [4],no intrinsic activity (intrinsic activity below 0.1 (10%) is classified as inactive or having no intrinsic activity)
same,"functional status (pAg, Ag, Antag, Inactive)","hMC4-R [5]; MC4-R, Table 1",Antag (“Antag” means antagonist)
same,intrinsic activity at MC4-R,hMC4-R [5]; NDP-α-MSH maximal stimulation = 1.0,no intrinsic activity
same,pA2 value at MC4-R,hMC4-R [5]; Schild plot vs NDP-α-MSH,7.3
same,functional status at MC4-R,"hMC4-R [5]; cAMP assay, mostly at 1 μM",antagonist
same,functional status at MC5-R,hMC5-R [6],partial agonist (intrinsic activity between 0.1 (10%) and 0.7 (70%) is classified as a partial agonist)
same,Ki,hMC5-R [7],378 nM
same,Ki,MC1-R [8],4620 nM
same,Inhibition at 1 μM (NDP-α-MSH) MC1-R,MC1-R [8]; 1 μM compound,0%
same,inverse agonism (basal cAMP),MC4-R,inverse agonism
same,Ki,"hMC4-R [9]; MC4-R membranes, Table 1, read-out: Ki (nM) I125-NPD-α-MSH",6 nM
same,Ki,hMC4-R [9]; read-out: Ki (nM) (NDP-α-MSH) MC4-R,6 nM
